Experimental data: patent US20230416258A1, “BENZ[…], AND PREPARATION METHOD THEREFOR AND USE THEREOF” (CHINA PHARMACEUTICAL UNIVERSITY, priority 2020, published 2023)

Test system: KM mice
Test: Test for drug-induced disappearance of righting reflex in mice
Format: in vivo
Settings: single rapid bolus via tail vein
Text: In anesthetic drug experiments, latency generally refers to the time from the start of administration to the loss of consciousness of the subject. The shorter latency is preferred, indicating a rapid onset of action after administration. The duration of anesthesia generally refers to the duration of time from the loss of consciousness to the restoration of consciousness of the subject. The duration of the drug will vary from animal model to animal species. Too long anesthesia may produce adverse cardiovascular and respiratory responses, such as adverse neurological effects to the subject, including sleepiness and dizziness; meanwhile, too short duration of anesthesia may affect the anesthesia effect, causing problems such as increase of anesthesia dosage during the operation.
KM mice (female, 18-25 g) were randomly grouped and subjected to a single administration by rapid bolus via the tail vein. The latency and duration of disappearance of righting reflex in the mice were recorded.

Structure (SMILES) | Duration (30 mg/kg) [min] | Latency (30 mg/kg) [min] | Duration (60 mg/kg) [min] | Latency (60 mg/kg) [min] | Duration (100 mg/kg) [min] | Latency (100 mg/kg) [min]
COC(=O)CC[C@@H]1N=C(c2ccccc2F)c2cc(Br)ccc2-n2c(SCCCN3CCN(CCO)CC3)nnc21 [Compound 67, methyl (S)-3-(8-bromo-6-(2-fluorophenyl)-1-((3-(4-(2-hydroxyethyl)piperazin-1-yl)propyl)thio)-4H-benzo[f][1,2,4]triazolo[4,3-a][1,4]diazepin-4-yl)propionate] | 11.37 | 0.84 |  |  |  | 
COC(=O)CC[C@@H]1N=C(c2ccccc2F)c2cc([N+](=O)[O-])ccc2-n2c(SCCCN3CCN(CCO)CC3)nnc21 [Compound 68, methyl (S)-3-(8-nitro-6-(2-fluorophenyl)-1-((3-(4-(2-hydroxyethyl)piperazin-1-yl)propyl)thio)-4H-benzo[f][1,2,4]triazolo[4,3-a][1,4]diazepin-4-yl)propionate] |  |  | 15.02 | 0.68 |  | 
COC(=O)CC[C@@H]1N=C(c2ccccc2F)c2cc(Cl)ccc2-n2c(SCN3CCOCC3)nnc21 [Compound 69, methyl (S)-3-(8-chloro-6-(2-fluorophenyl)-1-((morpholinomethyl)thio)-4H-benzo[f][1,2,4]triazolo[4,3-a][1,4]diazepin-4-yl)propionate] | 21.61 | 0.90 |  |  |  | 
COC(=O)CC[C@@H]1N=C(c2ccccc2F)c2cc(Br)ccc2-n2c(SCN3CCOCC3)nnc21 [Compound 70, methyl (S)-3-(8-bromo-6-(2-fluorophenyl)-1-((morpholinomethyl)thio)-4H-benzo[f][1,2,4]triazolo[4,3-a][1,4]diazepin-4-yl)propionate] | 18.61 | 1.01 |  |  |  | 
COC(=O)CC[C@@H]1N=C(c2ccccc2F)c2cc([N+](=O)[O-])ccc2-n2c(SCN3CCOCC3)nnc21 [Compound 71, methyl (S)-3-(8-nitro-6-(2-fluorophenyl)-1-((morpholinomethyl)thio)-4H-benzo[f][1,2,4]triazolo[4,3-a][1,4]diazepin-4-yl)propionate] |  |  | 12.10 | 0.56 |  | 
COC(=O)CC[C@@H]1N=C(c2ccccc2F)c2cc(Cl)ccc2-n2c(SCN3CCN(c4ccccc4)CC3)nnc21 [Compound 72, methyl (S)-3-(8-chloro-6-(2-fluorophenyl)-1-(((4-phenylpiperazin-1-yl)methyl)thio)-4H-benzo[f][1,2,4]triazolo[4,3-a][1,4]diazepin-4-yl)propionate] | 13.12 | 0.42 | 10.67 | 1.52 |  | 
COC(=O)CC[C@@H]1N=C(c2ccccc2F)c2cc(Br)ccc2-n2c(SCN3CCN(c4ccccc4)CC3)nnc21 [Compound 73, methyl (S)-3-(8-bromo-6-(2-fluorophenyl)-1-(((4-phenylpiperazin-1-yl)methyl)thio)-4H-benzo[f][1,2,4]triazolo[4,3-a][1,4]diazepin-4-yl)propionate] | 12.12 | 0.86 |  |  |  | 
COC(=O)CC[C@@H]1N=C(c2ccccc2F)c2cc([N+](=O)[O-])ccc2-n2c(SCN3CCN(c4ccccc4)CC3)nnc21 [Compound 74, methyl (S)-3-(8-nitro-6-(2-fluorophenyl)-1-(((4-phenylpiperazin-1-yl)methyl)thio)-4H-benzo[f][1,2,4]triazolo[4,3-a][1,4]diazepin-4-yl)propionate] | 6.16 | 0.47 |  |  |  | 
COC(=O)CC[C@@H]1N=C(c2ccccc2Cl)c2cc(Cl)ccc2-n2c(SCC3CC3)nnc21 [Compound 75, methyl (S)-3-(8-chloro-6-(2-chlorophenyl)-1-((cyclopropylmethyl)thio)-4H-benzo[f][1,2,4]triazolo[4,3-a][1,4]diazepin-4-yl)propionate] | 6.53 | 0.51 |  |  |  | 
COC(=O)CC[C@@H]1N=C(c2ccccc2Cl)c2cc(Br)ccc2-n2c(SCC3CC3)nnc21 [Compound 76, methyl (S)-3-(8-bromo-6-(2-chlorophenyl)-1-((cyclopropylmethyl)thio)-4H-benzo[f][1,2,4]triazolo[4,3-a][1,4]diazepin-4-yl)propionate] | 5.65 | 0.76 |  |  |  | 
COC(=O)CC[C@@H]1N=C(c2ccccc2Cl)c2cc([N+](=O)[O-])ccc2-n2c(SCC3CC3)nnc21 [Compound 77, methyl (S)-3-(8-nitro-6-(2-chlorophenyl)-1-((cyclopropylmethyl)thio)-4H-benzo[f][1,2,4]triazolo[4,3-a][1,4]diazepin-4-yl)propionate] | 5.69 | 0.38 |  |  |  | 
C#CCSc1nnc2n1-c1ccc(Cl)cc1C(c1ccccc1Cl)=N[C@H]2CCC(=O)OC [Compound 78, methyl (S)-3-(8-chloro-6-(2-chlorophenyl)-1-(prop-2-yn-1-ylthio)-4H-benzo[f][1,2,4]triazolo[4,3-a][1,4]diazepin-4-yl)propionate] | 12.67 | 1.05 |  |  |  | 
C#CCSc1nnc2n1-c1ccc(Br)cc1C(c1ccccc1Cl)=N[C@H]2CCC(=O)OC [Compound 79, methyl (S)-3-(8-bromo-6-(2-chlorophenyl)-1-(prop-2-yn-1-ylthio)-4H-benzo[f][1,2,4]triazolo[4,3-a][1,4]diazepin-4-yl)propionate] | 6.93 | 0.57 |  |  |  | 
C#CCSc1nnc2n1-c1ccc([N+](=O)[O-])cc1C(c1ccccc1Cl)=N[C@H]2CCC(=O)OC [Compound 80, methyl (S)-3-(8-nitro-6-(2-chlorophenyl)-1-(prop-2-yn-1-ylthio)-4H-benzo[f][1,2,4]triazolo[4,3-a][1,4]diazepin-4-yl)propionate] |  |  | 13.57 | 0.86 |  | 
COC(=O)CC[C@@H]1N=C(c2ccccc2Cl)c2cc(Cl)ccc2-n2c(SCCN3CCOCC3)nnc21 [Compound 81, methyl (S)-3-(8-chloro-6-(2-chlorophenyl)-1-((2-morpholinoethyl)thio)-4H-benzo[f][1,2,4]triazolo[4,3-a][1,4]diazepin-4-yl)propionate] |  |  | 6.41 | 0.21 | 12.38 | 0.22
CCN(CC)CCSc1nnc2n1-c1ccc(Cl)cc1C(c1ccccc1Cl)=N[C@H]2CCC(=O)OC [Compound 84, methyl (S)-3-(8-chloro-6-(2-chlorophenyl)-1-((2-(diethylamino)ethyl)thio)-4H-benzo[f][1,2,4]triazolo[4,3-a][1,4]diazepin-4-yl)propionate] | 21.9 | 0.31 |  |  |  | 
CCN(CC)CCSc1nnc2n1-c1ccc(Br)cc1C(c1ccccc1Cl)=N[C@H]2CCC(=O)OC [Compound 85, methyl (S)-3-(8-bromo-6-(2-chlorophenyl)-1-((2-(diethylamino)ethyl)thio)-4H-benzo[f][1,2,4]triazolo[4,3-a][1,4]diazepin-4-yl)propionate] |  |  | 13.12 | 0.67 |  | 
CCN(CC)CCSc1nnc2n1-c1ccc([N+](=O)[O-])cc1C(c1ccccc1Cl)=N[C@H]2CCC(=O)OC [Compound 86, methyl (S)-3-(8-nitro-6-(2-chlorophenyl)-1-((2-(diethylamino)ethyl)thio)-4H-benzo[f][1,2,4]triazolo[4,3-a][1,4]diazepin-4-yl)propionate] | 18.62 | 0.62 |  |  |  | 
COC(=O)CC[C@@H]1N=C(c2ccccc2Cl)c2cc(Cl)ccc2-n2c(SCCCN(C)C)nnc21 [Compound 87, methyl (S)-3-(8-chloro-6-(2-chlorophenyl)-1-((3-(dimethylamino)propyl)thio)-4H-benzo[f][1,2,4]triazolo[4,3-a][1,4]diazepin-4-yl)propionate] |  |  | 21.17 | 0.73 |  | 
COC(=O)CC[C@@H]1N=C(c2ccccc2Cl)c2cc(Br)ccc2-n2c(SCCCN(C)C)nnc21 [Compound 88, methyl (S)-3-(8-bromo-6-(2-chlorophenyl)-1-((3-(dimethylamino)propyl)thio)-4H-benzo[f][1,2,4]triazolo[4,3-a][1,4]diazepin-4-yl)propionate] | 15.82 | 0.53 |  |  |  | 
COC(=O)CC[C@@H]1N=C(c2ccccc2Cl)c2cc([N+](=O)[O-])ccc2-n2c(SCCCN(C)C)nnc21 [Compound 89, methyl (S)-3-(8-nitro-6-(2-chlorophenyl)-1-((3-(dimethylamino)propyl)thio)-4H-benzo[f][1,2,4]triazolo[4,3-a][1,4]diazepin-4-yl)propionate] |  |  | 9.88 | 0.83 |  | 
COC(=O)CC[C@@H]1N=C(c2ccccc2Cl)c2cc(Cl)ccc2-n2c(SCCN3CCN(C)CC3)nnc21 [Compound 90, methyl (S)-3-(8-chloro-6-(2-chlorophenyl)-1-((2-(4-methylpiperazin-1-yl)ethyl)thio)-4H-benzo[f][1,2,4]triazolo[4,3-a][1,4]diazepin-4-yl)propionate] | 15.26 | 0.67 |  |  |  | 
COC(=O)CC[C@@H]1N=C(c2ccccc2Cl)c2cc(Br)ccc2-n2c(SCCN3CCN(C)CC3)nnc21 [Compound 91, methyl (S)-3-(8-bromo-6-(2-chlorophenyl)-1-((2-(4-methylpiperazin-1-yl)ethyl)thio)-4H-benzo[f][1,2,4]triazolo[4,3-a][1,4]diazepin-4-yl)propionate] | 17.33 | 1.80 |  |  |  | 
COC(=O)CC[C@@H]1N=C(c2ccccc2Cl)c2cc([N+](=O)[O-])ccc2-n2c(SCCN3CCN(C)CC3)nnc21 [Compound 92, methyl (S)-3-(8-nitro-6-(2-chlorophenyl)-1-((2-(4-methylpiperazin-1-yl)ethyl)thio)-4H-benzo[f][1,2,4]triazolo[4,3-a][1,4]diazepin-4-yl)propionate] |  |  | 10.12 | 2.00 |  | 
